Experimental data from PMC12391391, “The balance between B55α and Greatwall expression levels predicts sensitivity to Greatwall inhibition in cancer cells” (Nature Communications, 2025).
Where two headings read alike, the source gives them in different places.

Columns and labels:
[1] = molecular target: T1, Greatwall kinase (GWL, MASTL) (Homo sapiens, UniProt Q96GX5, K72M); assay: HTRF kinase assay with purified full-length GWL (K72M) and ENSA; assay type: biochemical
T1 construct: full-length
T1 sequence (Q96GX5 1-879 K72M): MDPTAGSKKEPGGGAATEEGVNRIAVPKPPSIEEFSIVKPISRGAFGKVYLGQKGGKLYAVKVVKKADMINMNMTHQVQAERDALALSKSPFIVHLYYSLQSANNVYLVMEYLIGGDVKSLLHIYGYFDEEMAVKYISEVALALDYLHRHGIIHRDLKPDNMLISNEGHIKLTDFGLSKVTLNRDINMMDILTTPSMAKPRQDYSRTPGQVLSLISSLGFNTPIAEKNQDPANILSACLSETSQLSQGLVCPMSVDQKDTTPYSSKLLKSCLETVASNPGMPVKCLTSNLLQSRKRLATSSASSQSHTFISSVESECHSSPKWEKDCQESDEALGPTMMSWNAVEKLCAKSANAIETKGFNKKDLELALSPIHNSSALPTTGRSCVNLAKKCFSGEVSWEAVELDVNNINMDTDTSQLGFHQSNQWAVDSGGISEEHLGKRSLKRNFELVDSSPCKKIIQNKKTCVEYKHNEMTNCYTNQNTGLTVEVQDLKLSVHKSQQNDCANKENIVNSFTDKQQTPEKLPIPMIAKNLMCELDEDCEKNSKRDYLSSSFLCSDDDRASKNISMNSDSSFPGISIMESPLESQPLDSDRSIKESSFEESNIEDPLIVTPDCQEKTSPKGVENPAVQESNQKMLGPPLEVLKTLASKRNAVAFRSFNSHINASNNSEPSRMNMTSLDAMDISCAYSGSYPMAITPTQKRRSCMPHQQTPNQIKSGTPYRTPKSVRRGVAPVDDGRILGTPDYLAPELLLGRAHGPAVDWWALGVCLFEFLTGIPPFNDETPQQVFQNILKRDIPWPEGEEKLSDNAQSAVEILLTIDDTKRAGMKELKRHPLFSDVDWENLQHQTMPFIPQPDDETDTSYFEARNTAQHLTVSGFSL

in vitro [2] = assay: in vitro; parameters: intrinsic clearance in mouse microsomes; conditions: liver microsomes; mouse liver microsomes
Description: (§1) We selected compound 1 as the lead exemplar of cluster 3 and leveraged it as a foundation for subsequent drug development (Fig. 1a). Structure-activity relationship studies and pharmacokinetic profiling produced several derivative molecules, of which compound 21 provided the best combination of outstanding inhibitory potential, low clearance in mouse microsomes and acceptable solubility (Fig. 1a–c and Supplementary Tables 1–4). […] This assessment was supported by structural modelling of the interaction between compound 21 and the active site of GWL (Fig. 1d). In further support of its GWL-targeting properties, compound 21 diminished the phosphorylation of the canonical GWL substrate ENSA(S67) in Xenopus laevis cytostatic factor (CSF) egg extract (Supplementary Fig. 2). Having satisfied the criteria of prospective GWL inhibitor, the racemic compound 21 was registered as UOS-00054604 and, for the remainder of the manuscript, is referred to as C-604.

physchem = assay: physchem; parameters: aqueous solubility at pH 7.0; conditions: pH 7.0; buffer pH 7.0; aqueous buffer pH 7.0
Description: as §1

CDK1/cyclinB [3] = molecular target: T2, CDK1/cyclinB (Homo sapiens, UniProt P06493); assay: biochemical; parameters: CDK1/cyclin B and off-target kinase inhibition assay
hERG = molecular target: T3, hERG (Homo sapiens, UniProt Q12809); assay: cell-based; parameters: hERG channel inhibition
T3 construct: gene KCNH2
Description: as §1

[4] = molecular target: T1, Greatwall kinase (GWL, MASTL); assay: biochemical; parameters: HTRF kinase assay with full-length GWL and ENSA, inhibition
Description: To discover small molecules interfering with GWL activity, we screened a kinase-focused subset of the AstraZeneca compound collection in the full-length hyperactive GWL (K72M) homogeneous time-resolved fluorescence (HTRF) assay. The kinase screening collection comprised around 40,000 samples of interest, augmented by exemplars of kinase hinge-binding motifs, literature-reported kinase actives and screening catalogue purchases (mean MW ≈ 360, mean clogP ≈ 2.8), aiming to achieve as wide a coverage of the kinome as possible. Initially, we selected potential active molecules with a z-score ≤ −5 (equivalent to approximately 25% inhibition or better) and performed compound clustering, followed by near-neighbour testing and determination of relevant median inhibitory concentration (IC50) values. Subsequent re-clustering based on GWL inhibitory potency, Cdk1 selectivity, broad kinome selectivity and additional known factors influencing drug developability, such as molecular weight, lipophilicity and the number of hydrogen donors and acceptors, generated six prioritised compound clusters (Supplementary Fig. 1a, b). […] Despite the favourable kinase selectivity profile of cluster 5, we considered this series less attractive due to the limited number of compounds (n = 5) and suboptimal molecular properties for a hit, such as higher lipophilicity, lower binding efficiency (as indicated by ligand-lipophilic efficiency, LLE) and greater molecular weight (Supplementary Fig. 1a, b). […] We selected compound 1 as the lead exemplar of cluster 3 and leveraged it as a foundation for subsequent drug development (Fig. 1a). Structure-activity relationship studies and pharmacokinetic profiling produced several derivative molecules, of which compound 21 provided the best combination of outstanding inhibitory potential, low clearance in mouse microsomes and acceptable solubility (Fig. 1a–c and Supplementary Tables 1–4). […] This assessment was supported by structural modelling of the interaction between compound 21 and the active site of GWL (Fig. 1d). In further support of its GWL-targeting properties, compound 21 diminished the phosphorylation of the canonical GWL substrate ENSA(S67) in Xenopus laevis cytostatic factor (CSF) egg extract (Supplementary Fig. 2). Having satisfied the criteria of prospective GWL inhibitor, the racemic compound 21 was registered as UOS-00054604 and, for the remainder of the manuscript, is referred to as C-604.  Fig. 1 Development and characterisation of the GWL kinase inhibitor C-604. a Chemical structure of the lead exemplar compound 21 and the general synthetic route towards the preparation of pyrrolopyrazine GWL inhibitors. (a) for 4a, (i) NaH, SEM-Cl, DMF, 0 °C, 4 h; (ii) Arnold’s reagent, CHCl3, 60 °C, 20 h; (iii) NaClO2, KH2PO4, NH2SO3H, 1,4-dioxane/water, 0 °C to rt, 2 h, 35% (three steps); for 4b, (i) hexamine, TFA, MW, 80 °C, 20 min; (ii) NaH, SEM-Cl, DMF, 0 °C to rt, 16 h; (iii) NaClO2, KH2PO4, NH2SO3H, 1,4-dioxane/water, 0 °C to rt, 1.5 h, 14% (three steps); (b) 2 M methylamine in THF, T3P, pyridine, EtOAc, 60 °C, 2-4 h, 89-97%; (c) 2-(pyrrolidin-1-yl)ethanol, CuI, L-proline, K2CO3, DMSO, 100 °C, 16 h, 48%; (d) TFA, DCM, rt, 16 h then ethylenediamine, DCM, rt, 3-6 h, 29-92%; (e) 1-methylpiperazine, CuI, L-proline, K2CO3, DMSO, 100 °C, 16 h, 77%; (f) boronate ester, Pd(dppf)Cl2 · DCM, 1,4-dioxane/water, MW, 120 °C, 30 min, 43-81%; (g) boronate ester, Pd(dppf)Cl2 · DCM, 1,4-dioxane/water, MW, 120 °C, 30 min, 56%; (h) amine, K2CO3, DMF, 95 °C, 1 h, 32-67%. b Chemical structure of the lead compound 21 (C-604). c Dose-dependent effect of compound 21 (C-604) on the in vitro GWL activity measured by an HTRF assay utilising purified full-length GWL (K72M) and ENSA. Per cent (%) inhibition was determined from fluorescence intensity values normalised to the signal measured in the control enzyme-free reaction. […]

Syk = Syk (Homo sapiens, UniProt P43405); assay: biochemical; parameters: CDK1/cyclin B and off-target kinase inhibition assay; conditions: read-out: off-target pIC50 (converted)
CDK1/cyclinB [5] = molecular target: T2, CDK1/cyclinB; assay: biochemical; parameters: CDK1/cyclin B and off-target kinase inhibition assay; conditions: read-out: off-target pIC50 (converted)
in vitro [6] = assay: in vitro; parameters: intrinsic clearance in human microsomes; conditions: liver microsomes, human liver microsomes
Description: as §1

T2 sequence (P06493 whole entry): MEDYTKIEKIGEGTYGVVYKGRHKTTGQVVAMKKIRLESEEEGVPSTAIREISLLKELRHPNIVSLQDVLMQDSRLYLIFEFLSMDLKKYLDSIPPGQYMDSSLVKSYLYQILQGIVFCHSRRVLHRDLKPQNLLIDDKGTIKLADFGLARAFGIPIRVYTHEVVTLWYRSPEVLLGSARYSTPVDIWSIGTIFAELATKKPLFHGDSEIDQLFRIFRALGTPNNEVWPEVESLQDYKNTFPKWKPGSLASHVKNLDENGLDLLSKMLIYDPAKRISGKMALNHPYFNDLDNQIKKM
T2 sequence (P14635 whole entry partner): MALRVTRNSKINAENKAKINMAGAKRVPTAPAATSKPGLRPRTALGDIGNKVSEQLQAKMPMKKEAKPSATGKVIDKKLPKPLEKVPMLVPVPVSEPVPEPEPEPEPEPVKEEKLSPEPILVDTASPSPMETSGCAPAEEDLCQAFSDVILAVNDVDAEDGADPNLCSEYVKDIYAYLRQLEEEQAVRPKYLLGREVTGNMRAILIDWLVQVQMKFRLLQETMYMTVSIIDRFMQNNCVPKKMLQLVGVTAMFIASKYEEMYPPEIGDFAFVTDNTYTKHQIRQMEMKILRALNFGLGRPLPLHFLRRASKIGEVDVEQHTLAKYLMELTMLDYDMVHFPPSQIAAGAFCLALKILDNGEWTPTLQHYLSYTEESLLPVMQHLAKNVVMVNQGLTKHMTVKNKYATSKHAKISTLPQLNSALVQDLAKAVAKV
T3 sequence (Q12809 whole entry): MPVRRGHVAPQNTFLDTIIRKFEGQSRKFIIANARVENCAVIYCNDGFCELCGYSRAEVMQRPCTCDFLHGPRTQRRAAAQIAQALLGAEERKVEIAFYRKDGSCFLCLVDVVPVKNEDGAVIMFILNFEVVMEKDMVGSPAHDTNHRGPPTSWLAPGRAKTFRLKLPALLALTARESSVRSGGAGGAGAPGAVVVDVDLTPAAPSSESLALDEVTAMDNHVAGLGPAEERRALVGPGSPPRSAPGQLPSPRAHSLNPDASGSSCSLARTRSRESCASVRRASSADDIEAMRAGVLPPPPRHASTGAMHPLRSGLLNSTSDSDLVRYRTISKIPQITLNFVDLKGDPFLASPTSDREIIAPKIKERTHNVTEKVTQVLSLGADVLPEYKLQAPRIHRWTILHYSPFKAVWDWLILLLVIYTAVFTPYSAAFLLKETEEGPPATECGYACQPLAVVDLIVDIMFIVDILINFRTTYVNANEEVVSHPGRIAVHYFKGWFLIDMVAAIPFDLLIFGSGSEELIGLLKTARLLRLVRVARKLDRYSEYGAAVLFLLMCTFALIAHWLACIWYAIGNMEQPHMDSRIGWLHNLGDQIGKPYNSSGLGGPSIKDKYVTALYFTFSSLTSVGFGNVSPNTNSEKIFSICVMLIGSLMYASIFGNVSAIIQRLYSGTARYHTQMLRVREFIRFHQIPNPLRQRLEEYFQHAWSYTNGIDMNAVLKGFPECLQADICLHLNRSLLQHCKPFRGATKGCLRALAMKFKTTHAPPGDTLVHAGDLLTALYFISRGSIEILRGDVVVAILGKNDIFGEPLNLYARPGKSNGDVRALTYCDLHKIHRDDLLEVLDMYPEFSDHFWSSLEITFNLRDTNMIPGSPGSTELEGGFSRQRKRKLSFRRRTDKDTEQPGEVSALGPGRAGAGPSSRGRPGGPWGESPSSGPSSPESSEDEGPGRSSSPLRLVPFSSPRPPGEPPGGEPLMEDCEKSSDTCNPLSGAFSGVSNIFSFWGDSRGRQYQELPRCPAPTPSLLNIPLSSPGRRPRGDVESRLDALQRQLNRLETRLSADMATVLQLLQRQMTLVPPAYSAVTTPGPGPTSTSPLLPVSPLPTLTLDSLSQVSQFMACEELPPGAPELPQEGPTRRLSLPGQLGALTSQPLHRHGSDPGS

microsomal CLint (in vitro [2])	IC50 [4]	SMILES	also measured
–	–	CNC(=O)c1c[nH]c2ncc(-c3ccc(OCCN4CC[C@H](c5ccccc5)C4)cc3)nc12 [21 (R), compound 21, R stereoisomer]	IC50 [1]: 13.3 ± 6.4 nM
–	–	CNC(=O)c1c[nH]c2ncc(-c3ccc(OCCN4CC[C@@H](c5ccccc5)C4)cc3)nc12 [21 (S), compound 21, S stereoisomer]	IC50 [1]: 10.9 ± 2 nM
196 µL/min/mg	–	CNC(=O)c1c[nH]c2ncc(-c3cn(C)c4ccccc34)nc12 [compound 1, 1]	solubility (physchem): 15 µM; IC50 (CDK1/cyclinB [3]): 1480 nM; IC50 (hERG): > 30000 nM; IC50 ([4]; read-out: K72MGWL HTRF pIC50 (converted)): 100 nM; IC50 (Syk): 25.1 nM; IC50 (CDK1/cyclinB [5]): 3160 nM; microsomal CLint (in vitro [6]; read-out: Cl (human)): 147 µL/min/mg; microsomal CLint (in vitro [6]; read-out: hMic Clint): 45 µL/min/mg
–	5880 nM	CNC(=O)c1c[nH]c2ncc(OCCN3CCCC3)nc12 [compound 6, 6]	–
–	4240 nM	CNC(=O)c1c[nH]c2ncc(N3CCN(C)CC3)nc12 [compound 7, 7]	–
–	339 nM	CNC(=O)c1c[nH]c2ncc(-c3ccc(C#N)cc3)nc12 [compound 8, 8]	–
–	507 nM	CNC(=O)c1c[nH]c2ncc(-c3cccnc3)nc12 [compound 10, 10]	–
–	206 nM	CNC(=O)c1c[nH]c2ncc(-c3cccc(CN(C)C)c3)nc12 [compound 11, 11]	–
–	62 nM	CNC(=O)c1c[nH]c2ncc(-c3cccc(C(=O)NCCN(C)C)c3)nc12 [compound 12, 12]	–
–	94 nM	CNC(=O)c1c[nH]c2ncc(-c3ccc(C(=O)NCCN(C)C)cc3)nc12 [compound 13, 13]	–
83 µL/min/mg	–	CNC(=O)c1c[nH]c2ncc(-c3ccc(N4CCN(C)CC4)cc3)nc12 [compound 14, 14]	solubility (physchem): 260 µM; IC50 (CDK1/cyclinB [3]): > 30000 nM; microsomal CLint (in vitro [6]; read-out: Cl (human)): 9 µL/min/mg
11 µL/min/mg	191 nM	CNC(=O)c1c[nH]c2ncc(-c3ccc(OCCN4CCOCC4)cc3)nc12 [compound 15, 15]	–
18 µL/min/mg	31 nM	CNC(=O)c1c[nH]c2ncc(-c3ccc(OCCN4CCN(C)CC4)cc3)nc12 [compound 16, 16]	–
7 µL/min/mg	80 nM	CNC(=O)c1c[nH]c2ncc(-c3ccc(OCCN4CCN(C(C)=O)CC4)cc3)nc12 [compound 17, 17]	–
–	–	CNC(=O)c1c[nH]c2ncc(-c3ccc(OCCN4CCC(OC)CC4)cc3)nc12 [compound 18, 18]	solubility (physchem): 504 µM
37 µL/min/mg	–	CNC(=O)c1c[nH]c2ncc(-c3ccc(OCCN4CCCC4)cc3)nc12 [compound 19, 19]	–
12 µL/min/mg	–	CNC(=O)c1c[nH]c2ncc(-c3ccc(OCCN4CCCCC4)cc3)nc12 [compound 20, 20]	solubility (physchem): 585 µM
